Reference: patent publication EP4793274A1, “SALT AND CRYSTAL FORM OF KIF18A INHIBITOR COMPOUND, PREPARATION METHOD THEREFOR AND USE THEREOF” (Hubei Bio-Pharmaceutical Industrial Technological Institute …, priority 2023, dated 2025)

Tests used:
[1] = Dynamic solubility at 37 °C in H2O, SGF, FaSSIF and FeSSIF (HPLC concentration, pH of filtrate, XRPD of residual solid); type: physicochemical; details: listed as Crystal form B of p-toluenesulfonate; for S: solubility: feeding concentration 10 mg/mL; for FC: crystal form change: XRPD of residual solid; for pH: pH of filtrate
Protocol: 0.82 mL of glacial acetic acid and 1.18 g of NaCl were added to a 100 mL volumetric flask and completely dissolved by addition of purified water.
The solubility of each sample in H2O, SGF, FaSSIF, and FeSSIF was determined at different time points (1 h, 2 h, 4 h, and 24 h). […] 137-156. […] Table C-2. Summary of dynamic solubility test results at 37 °C

[2] = Hygroscopicity by dynamic vapor sorption (DVS); type: physicochemical; details: 25 °C/80% RH
Protocol: Dynamic vapor sorption (DVS) curves were acquired on a DVS IntrInsic from Surface Measurement Systems (SMS). The relative humidity at 25 °C was corrected with the deliquescence points of LiCl, Mg(NO3)2, and KCl. Table A-5. DVS test parameters
The percentage changes in mass of the samples when the humidity changed (0% RH to 95% RH) at a constant temperature of 25 °C were collected. 157-166.

[3] = Solid state stability (XRPD and HPLC purity); type: physicochemical
Excerpt: 167-171. […] Table C-3. Summary of solid state stability evaluation

[4] = Solubility at room temperature in water, SGF and FaSSIF (HPLC concentration, pH of filtrate, XRPD of residual solid); details: listed as Crystal form B of p-toluenesulfonate; for S: solubility: feeding concentration 1 mg/mL; for pH: pH of filtrate
[5] = 80 °C/sealed, 1 day, listed as Crystal form B of p-toluenesulfonate

What does the source list for `Cc1cc(-c2cnn(-c3ccc(NS(=O)(=O)CCO)cc3N3CCC4(CC3)CC4)c2)nc(N2CCC(F)(F)CC2)n1` [crystal form B of the p-toluenesulfonate]?
S: solubility ([1]; FaSSIF, 1 h, 60 min): 0.0614 mg/mL; S: solubility ([1]; FaSSIF, 2 h, 120 min): 0.0517 mg/mL; S: solubility ([1]; FaSSIF, 4 h, 240 min): 0.0222 mg/mL; S: solubility ([1]; FaSSIF, 24 h, 1440 min): 0.0163 mg/mL; S: solubility ([1]; FeSSIF, 1 h, 60 min): 0.1828 mg/mL; S: solubility ([1]; FeSSIF, 2 h, 120 min): 0.1665 mg/mL; S: solubility ([1]; FeSSIF, 4 h, 240 min): 0.1599 mg/mL; S: solubility ([1]; FeSSIF, 24 h, 1440 min): 0.0814 mg/mL; S: solubility ([1]; H2O, 1 h, 60 min): 0.0027 mg/mL; S: solubility ([1]; H2O, 2 h, 120 min): 0.0025 mg/mL; S: solubility ([1]; H2O, 4 h, 240 min): 0.0019 mg/mL; S: solubility ([1]; H2O, 24 h, 1440 min): 0.0015 mg/mL; S: solubility ([1]; SGF, 1 h, 60 min): 0.0568 mg/mL; S: solubility ([1]; SGF, 2 h, 120 min): 0.0456 mg/mL; S: solubility ([1]; SGF, 4 h, 240 min): 0.0233 mg/mL; S: solubility ([1]; SGF, 24 h, 1440 min): 0.0181 mg/mL; FC: crystal form change ([1]; FaSSIF, 1 h): Yes; FC: crystal form change ([1]; FaSSIF, 2 h): Yes; FC: crystal form change ([1]; FaSSIF, 4 h): Yes; FC: crystal form change ([1]; FaSSIF, 24 h): Yes; FC: crystal form change ([1]; FeSSIF, 1 h): Yes; FC: crystal form change ([1]; FeSSIF, 2 h): Yes; FC: crystal form change ([1]; FeSSIF, 4 h): Yes; FC: crystal form change ([1]; FeSSIF, 24 h): Yes; FC: crystal form change ([1]; H2O, 1 h): Yes; FC: crystal form change ([1]; H2O, 2 h): Yes; FC: crystal form change ([1]; H2O, 4 h): Yes; FC: crystal form change ([1]; H2O, 24 h): Yes; FC: crystal form change ([1]; SGF, 1 h): Yes; FC: crystal form change ([1]; SGF, 2 h): Yes; FC: crystal form change ([1]; SGF, 4 h): Yes; FC: crystal form change ([1]; SGF, 24 h): Yes; pH ([1]; FaSSIF, 1 h): 2.92; pH ([1]; FaSSIF, 2 h): 2.84; pH ([1]; FaSSIF, 4 h): 2.74; pH ([1]; FaSSIF, 24 h): 2.68; pH ([1]; FeSSIF, 1 h): 4.68; pH ([1]; FeSSIF, 2 h): 4.66; pH ([1]; FeSSIF, 4 h): 4.68; pH ([1]; FeSSIF, 24 h): 4.74; pH ([1]; H2O, 1 h): 2.17; pH ([1]; H2O, 2 h): 2.17; pH ([1]; H2O, 4 h): 2.09; pH ([1]; H2O, 24 h): 1.95; pH ([1]; SGF, 1 h): 1.64; pH ([1]; SGF, 2 h): 1.63; pH ([1]; SGF, 4 h): 1.60; pH ([1]; SGF, 24 h): 1.59; vapor sorption values [2]: 0.171%; HPLC results Relative to starting (%) ([3]; 25 °C/60% RH/open, 1 week): 100.0%; HPLC results Purity (area%) ([3]; 25 °C/60% RH/open, 1 week, listed as Crystal form B of p-toluenesulfonate): 98.27 area%; HPLC results Relative to starting (%) ([3]; 40 °C/75% RH/open, 1 week): 100.0%; HPLC results Purity (area%) ([3]; 40 °C/75% RH/open, 1 week, listed as Crystal form B of p-toluenesulfonate): 98.25 area%; HPLC results Purity (area%) [3, 5]: 98.28 area%; HPLC results Relative to starting (%) [3, 5]: 100.0%; HPLC results Purity (area%) ([3]; Starting, listed as Crystal form B of p-toluenesulfonate): 98.28 area%; Crystal form ([3]; XRPD after 25 °C/60% RH/open, 1 week, listed as Crystal form B of p-toluenesulfonate): Crystal form B of p-toluenesulfonate; Crystal form ([3]; XRPD after 40 °C/75% RH/open, 1 week, listed as Crystal form B of p-toluenesulfonate): Crystal form B of p-toluenesulfonate; Crystal form ([3]; XRPD after 80 °C/sealed, 1 day, listed as Crystal form B of p-toluenesulfonate): Crystal form B of p-toluenesulfonate; S: solubility ([4]; FaSSIF, 2 h, 120 min): 0.0858 mg/mL; S: solubility ([4]; FaSSIF, 24 h, 1440 min): 0.0378 mg/mL; S: solubility ([4]; H2O, 24 h, 1440 min): 0.0001 mg/mL; S: solubility ([4]; SGF, 2 h, 120 min): 0.0413 mg/mL; S: solubility ([4]; SGF, 24 h, 1440 min): 0.0197 mg/mL; pH ([4]; FaSSIF, 2 h): 6.5; pH ([4]; FaSSIF, 24 h): 6.4; pH ([4]; H2O, 2 h): 3.4; pH ([4]; H2O, 24 h): 2.8; pH ([4]; SGF, 2 h): 1.9; pH ([4]; SGF, 24 h): 1.8
